From patent US20230096601A1, “BORTEZOMIB COMPOSITIONS” (MAIA Pharmaceuticals, Inc., priority 2021, published 2023)
Converted amounts (≈) assume the structure as drawn.

What was measured:
physchem = details: thermodynamic from solid
Procedure: The solubility of bortezomib in select non-aqueous solvents was determined to understand if any of these solvents may be useful (as a co-solvent with water) at low concentrations in the final formulation.
Approximately 25 mg of bortezomib was added to a suitable container. An initial volume of 0.5 mL of the non-aqueous solvent was added and the mixture stirred for 5 minutes. The appearance of the solution was recorded. […] If the bortezomib was not fully dissolved, additional volume of solvents were added in 0.25 mL increments with mixing for 5 minutes after each addition, and recording the appearance of the solution, until the bortezomib was fully dissolved, up to a total volume of 10 mL.

[1] = cited from earlier work
[2] = Equilibrium solubility by HPLC, bortezomib added directly to solvent system; assay type: physicochemical; details: buffered aqueous solutions, aqueous buffer, thermodynamic from solid; pH range of 4 to 7
Procedure: Because pH appeared to influence chemical stability, sodium acetate or sodium phosphate were included in these matrixes as buffers, and the effect of pH on solubility was also assessed.
The components were mixed (by shaking the glass container), and the mixture was observed. […] The suspension was allowed to equilibrate for 24 hours at room temperature while being protected from light. After the incubation, the solution phase was removed from the container into a clean vial by filtration through a 0.45 micron syringe filter, and the filtrate was assayed for bortezomib content using an HPLC procedure, and a bortezomib standard.

[3] = Formulation trials with low concentrations of benzyl alcohol / DMSO in water: visual dissolution and physical stability; assay type: physicochemical; details: benzyl alcohol (2% v/v), DMSO (5% v/v) or combination added to bortezomib, then water; mixing >3 hours
Procedure: Initial formulation experiments with low concentrations of various non-aqueous solvents were conducted targeting a bortezomib concentration of 2.5 mg/mL. Attempts to solubilize bortezomib were conducted using low concentrations of benzyl alcohol (2% v/v), or dimethyl sulfoxide (5% v/v), or a combination of these solvents. […] For these formulations, the non-aqueous solvent was added to bortezomib to dissolve it, followed by addition of water to the bortezomib-solvent mixture.
Various concentrations of DMSO were explored as the non-aqueous component of the formulation (2% v/v to 5% v/v in water). Bortezomib was first completely dissolved in the batch volume of DMSO to form a concentrated “premix” solution prior to making up the batch to the target concentration (2.5 mg/mL) with water. This was done to facilitate the subsequent dissolution of bortezomib in the aqueous component.

[4] = Solubility by HPLC, bortezomib premixed with nonaqueous solvent before addition to aqueous component; assay type: physicochemical; details: aqueous with cosolvent or surfactant or cyclodextrin, kinetic from dmso stock; premix in non-aqueous solvent, aqueous system with 25 mg/mL mannitol
Procedure: This example was carried out to determine the solubility of bortezomib in particular solvents and solvent systems when the bortezomib is first dissolved in (the batch quantity) of a non-aqueous solvent to form a concentrated solution (“premix”), prior to adding the premix to the aqueous component(s). A bortezomib sample (between 10 and 50 mg) was placed in a suitable glass container and added to a defined volume of a nonaqueous solvent system (if used) as defined below in Table 4, to create a concentrated premix. The premix was subsequently added to enough buffered aqueous solvent to make a final volume of 5 mL, as defined below in Table 4.
The resulting formulation was allowed to equilibrate for 24 hours at room temperature, protected from light. Solubility was determined by filtration through a 0.45 micron filter, and assay of the filtrate for bortezomib content using an HPLC procedure, and a bortezomib standard. One mL aliquots of the filtrate (saturated solution) were subjected to three freeze-thaw cycles of 24 hours at −20° C. and 24 hours at 25° C. each, with visual examination after each cycle. Absence of precipitation after the three cycles was used as an index of physical stability of the formulation upon long-term storage.

[5] = Accelerated / room temperature stability testing at 25° C./60% RH, HPLC assay and impurities (percent of nominal bortezomib concentration); assay type: physicochemical
Procedure: The compositions described herein are storage stable aqueous liquid ready-to-use compositions. The degradation of the active ingredient, as well as the formation of various impurities is controlled by the composition to a minimal level. Stability testing was performed at the long-term stability condition (2-8° C.) as well as the accelerated stability condition (25±2° C./60±5% RH) for refrigerated products. At each time point, the bortezomib content (assay) and the impurity profile was determined using an HPLC procedure, and a bortezomib reference standard. The HPLC method utilizes a reverse phase column with an aqueous formic acid/acetonitrile and aqueous formic acid/methanol mobile phase gradient and UV/PDA detector at a wavelength of about 270 nm.
The effect of pH on bortezomib formulations using a low concentration of DMSO in water (4.5% v/v DMSO for the 2.5 mg/mL strength and 1% v/v DMSO for the 1 mg/mL strength) was then assessed. In each case, the bortezomib was first fully dissolved in the batch quantity of DMSO to form a concentrated premix solution, which was then added to water, and the pH adjusted with sodium hydroxide and/or hydrochloric acid to pH ranging from 4 to 8.5. […] Because oxidative degradation is a significant degradation pathway for bortezomib, filled vials were overlayed with nitrogen. These batches were placed on stability at accelerated (25° C.) and long-term storage conditions (2-8° C.). […] Although the 2.5 mg/mL formulations were not physically stable at 25° C., chemical stability, based on analysis after 2 months at 25° C., stability was poor at pH 4 and pH 8.5 for both strengths, with good stability being observed at pH 5.5 for the 2.5 mg/mL strength and pH 5.5 and 7 for the 1 mg/mL strength.
The preparation of the concentrated bortezomib premix is performed. The batch quantity of bortezomib is added to a suitable glass container. The batch quantity of the non-aqueous solvent is then added to the bortezomib, and mixed until the bortezomib is completely dissolved. The initial aqueous component is separately prepared by dissolving the other excipients such as buffer, optionally a solubilizer and/or stabilizer, or a tonicity adjuster, in water for injection, which optionally has been degassed by sparging nitrogen through it and adjusting to the desired pH using appropriate pH adjusting agent, if needed. The aqueous component is typically prepared at about double the corresponding concentration(s) in the final formulation; this was typically accomplished by dissolving the excipients in approximately half the batch volume of water. The bortezomib premix is then added to the (concentrated) aqueous component, and mixed. Water is then added to make up to about 80-90% of the batch volume and a final pH adjustment is performed to the target pH using appropriate pH adjusting agent, if needed. After final pH adjustment, the batch is made up to the target batch volume. The batch is then sterile filtered using a 0.2 micron filter, filled into (2-mL, or 3-mL, or 5-mL) USP Type I, optionally amber, glass vials, stoppered with (13-mm or 20-mm) fluoropolymer-coated chlorobutyl rubber stoppers, and sealed with (13-mm or 20-mm) aluminum caps. The fill volume used is typically 3.5 mL for the 1 mg/mL formulations or 1.4 mL for the 2.5 mg/mL formulations (to contain 3.5 mg bortezomib per vial). Because bortezomib is known to be oxidation and light sensitive, compounding and filling is typically carried out in a glove box equilibrated with nitrogen at various residual oxygen levels (typically less than 5%). Light exposure is minimized.
The stability testing under accelerated conditions (25° C. and 60% relative humidity for at least 6 months) of these formulations is presented in Table 6.

## CC(C)C[C@H](NC(=O)[C@H](Cc1ccccc1)NC(=O)c1cnccn1)B(O)O [Bortezomib, [(1R)-3-methyl-1-[[(2S)-1-oxo-3-phenyl-2-[(pyrazinylcarbonyl)amino]propyl]amino]butyl] boronic acid]
physchem; N-methyl pyrrolidone (NMP), organic solvent or mixture
  solubility at 5 min: > 25000 µg/mL
physchem; benzyl alcohol, organic solvent or mixture
  solubility at 5 min: > 50000 µg/mL
physchem; dimethyl sulfoxide (DMSO), organic solvent or mixture
  solubility at 5 min: > 50000 µg/mL
physchem; ethanol, organic solvent or mixture
  solubility at 5 min: ~4500 µg/mL (≈ 11.7 mM)
physchem; glycerol, organic solvent or mixture
  solubility at 5 min: < 2500 µg/mL
physchem; polyethylene glycol 400, organic solvent or mixture
  solubility at 5 min: < 2500 µg/mL
physchem; propylene glycol, organic solvent or mixture
  solubility at 5 min: ~3600 µg/mL (≈ 9.37 mM)
[1]
  solubility of bortezomib in water or buffered aqueous solutions reported by the suppliers: < 100 µg/mL
[2]
  solubility at 24 h: < 500 µg/mL
[3]
  dissolution at target 2.5 mg/mL: precipitated after addition of water
[4]
  solubility at 24 h: > 4000 µg/mL
[5]; 1 mg/mL bortezomib, 1% (v/v) DMSO in water, pH 4
  Total Impurities after 2 months at 25° C. (%): 7.83%
[5]; 1 mg/mL bortezomib, 1% (v/v) DMSO in water, pH 5.5
  Total Impurities after 2 months at 25° C. (%): 0.52%
[5]; 1 mg/mL bortezomib, 1% (v/v) DMSO in water, pH 7
  Total Impurities after 2 months at 25° C. (%): 1.18%
[5]; 1 mg/mL bortezomib, 1% (v/v) DMSO in water, pH 8.5
  Total Impurities after 2 months at 25° C. (%): 12.48%
[5]; 2.5 mg/mL bortezomib, […] (v/v) DMSO in water, pH 4
  Total Impurities after 2 months at 25° C. (%): 13.71%
[5]; 2.5 mg/mL bortezomib, […] (v/v) DMSO in water, pH 5.5
  Total Impurities after 2 months at 25° C. (%): 1.07%
[5]; 2.5 mg/mL bortezomib, […] (v/v) DMSO in water, pH 7
  Total Impurities after 2 months at 25° C. (%): 5.91%
[5]; 2.5 mg/mL bortezomib, […] (v/v) DMSO in water, pH 8.5
  Total Impurities after 2 months at 25° C. (%): 31.59%
